We go through 16 molecules from ChEMBL document CHEMBL1155220, “The medicinal chemistry of dengue fever” (J Med Chem, 2009).

Molecules are shown by their SMILES. Values after ≈ are worked out from the molar mass of the structure shown.

A short description of assay [1]: Inhibition of Dengue virus NS3 helicase.
Assay [2] relates to Dengue virus. In words: Inhibition of Dengue virus NS3 helicase at 100 uM.
Assay [3] can be described thus: Inhibition of Dengue virus IMPDH.
In assay [4] the test system is Dengue virus. The assay is described as follows: Antiviral activity against Dengue virus. The class given is functional, organism-based.
Assay [5] concerns Dengue virus. In words: Antiviral activity against Dengue virus by cell based assay. Format: functional, organism-based.
Assay [6] can be described thus: Inhibition of Dengue virus N7-methyl transferase.
The nature of assay [7]: Inhibition of Dengue virus 2'-O-methyl transferase.
Assay [8] relates to Dengue virus. The assay is described as follows: Antiviral activity against Dengue virus assessed as inhibition of virus-induced cytopathic effect by cell based assay. The class given is functional, organism-based.
The test system of assay [9] is Dengue virus. The assay is described as follows: Antiviral activity against Dengue virus assessed as reduction of virus yield by cell based assay. The class given is functional, organism-based.
Assay [10] is described as follows: Inhibition of Dengue virus sEnvelope glycoprotein binding to immobilized heparin.

The molecule `CO[C@@H]1[C@H](O)[C@@H](CO)O[C@H]1n1cnc2c(=O)[nH][nH]c(=O)c21` registered an IC50 in [1] of 30 µM. For the same molecule, in assay [2], the inhibition was found to be 30%. In assay [3], `C#Cc1c(C(N)=O)ncn1[C@@H]1O[C@H](CO)[C@@H](O)[C@H]1O` yielded a concentration for half-maximal inhibition (IC50) of 38 µg/mL (≈ 142 µM). In assay [4], `CCN(CCCN(CC)C(=O)c1ccc(O)cc1)C(=O)c1ccc(O)cc1` showed an IC50 of 2000 µM. Still for that read-out and setting: in the case of `CN(CCCNC(=O)c1ccc(O)cc1)CCCNC(=O)c1ccc(O)cc1` it was 2000 µM; in that of `O=C(O)/C=C/c1ccc(OS(=O)(=O)O)cc1`, 2000 µM.

As to `CN(CCCNC(=O)c1ccc(O)cc1)CCCNC(=O)c1ccc2cc(O)ccc2c1`, the IC50 in [4] worked out at 294 µM.

For `CCN(CCOC(=O)/C=C/c1ccc(O)cc1)Cc1cc(Cl)ccc1O`, the 50% inhibitory concentration (IC50) in assay [4] worked out at 46 µM. In assay [5], `O=c1cnn([C@@H]2O[C@H](CO)[C@@H](O)[C@H]2O)c(=O)[nH]1` [6-AZAURIDINE] gave an EC50 of 0.1 µg/mL. For `O=C(O)C1=CC(=C(c2ccc(O)c(C(=O)O)c2)c2ccc(O)c(C(=O)O)c2)C=CC1=O` [AURINTRICARBOXYLIC ACID], the IC50 in [6] stood at 2.3 µM; in assay [7], 127 µM. Molecule `C[C@@]1(O)[C@H](O)[C@@H](CO)O[C@H]1n1ccc2c(N)ncnc21` [BETA-2'-C-METHYL-7-DEAZA-ADENOSINE] had a half-maximal effective concentration (EC50) in assay [5] of 15 µM.

In the case of `O[C@H]1[C@H](O)[C@@H](O)CN2CC[C@H](O)[C@H]12` [CASTANOSPERMINE], it took 1 µM to reach half-maximal inhibition in [4] (IC50).

Turning to `CN[C@@H]1[C@@H](O)[C@@H](O[C@@H]2[C@@H](O)[C@H](O[C@H]3O[C@H]([C@@H](C)O)[C@@H](O)[C@H](O)[C@H]3N)[C@@H](N)C[C@H]2N)OC[C@]1(C)O` [GENETICIN], the values for the concentration for a half-maximal effect (EC50) in assay [8] and in assay [9] were 6 µM and 4 µM, respectively. In turn, `COc1cc(NC(=O)Nc2cccc(CNC(=O)O[C@H]3CCOC3)c2)ccc1-c1cnco1` [MERIMEPODIB] registered an IC50 in [4] of 8 µM. `COc1c(C)c2c(c(O)c1C/C=C(\C)CCC(=O)O)C(=O)OC2` [MYCOPHENOLIC ACID]: the IC50 in assay [3] was 0.1 µg/mL (≈ 0.312 µM).

On to `NC(=O)c1ncn([C@@H]2O[C@H](CO)[C@@H](O)[C@H]2O)n1` [RIBAVIRIN], for which a half-maximal effect in assay [4] (EC50) was put at 49 µg/mL (≈ 201 µM). In assay [3], this molecule yielded an IC50 of 1.6 µg/mL (≈ 6.55 µM). `Cc1ccc(C(=O)Nc2ccc(S(=O)(=O)O)c3cc(S(=O)(=O)O)cc(S(=O)(=O)O)c23)cc1NC(=O)c1cccc(NC(=O)Nc2cccc(C(=O)Nc3cc(C(=O)Nc4ccc(S(=O)(=O)O)c5cc(S(=O)(=O)O)cc(S(=O)(=O)O)c45)ccc3C)c2)c1` [SURAMIN]: the IC50 in [10] is 0.7 µM.

As a reminder, the IC50 is the point on the concentration scale where inhibition reaches its midpoint. For orientation: inhibition means the change of the read-out against control, counted positive when it falls. A higher inhibition goes with a strong effect. In general, EC50 refers to the concentration that produces a half-maximal response.
